Experimental data reported in US9814865B2, “Coated medical device” (Cook Medical Technologies LLC, priority 2000, dated 2017).

Test: physical adhesion test simulating introduction and deployment of paclitaxel-coated stents
Format: physicochemical
Conditions: passed through water-filled guiding catheter, balloon-expanded, measured by spectrometry
Excerpt: More particularly, the adhesion of paclitaxel to two types of stainless steel, grit abraded stents was compared to its adhesion to stents of those types whose surfaces had instead been plasma treated prior to the direct deposition of paclitaxel thereon (control stents). The coated stents of both types, that is, medical devices 10 of the present invention and control stents, were then subjected to a physical adhesion test which simulated the rate at which paclitaxel would be delivered during introduction and deployment of the stents in clinical use. The adhesion test involved passing each stent through a water-filled guiding catheter of appropriate diameter and inflating the balloon catheter to expand each stent to its intended diameter. The stents are already mounted before coating. The amount of paclitaxel remaining on each stent was then measured by spectrometry and compared to the amount of paclitaxel initially posited on each stent. Stents having surfaces 16 roughened or textured by abrasion with different abrasive grits 24 retained 84.1±10.2% of the paclitaxel originally applied, while stents having plasma treated surfaces retained only 44.3±8.7% of the paclitaxel originally applied (p<0.0001).

- paclitaxel originally applied retained on stent after adhesion test (stainless steel control stents with plasma treated surfaces, p<0.0001 vs abraded): 44.3±8.7%
- paclitaxel originally applied retained on stent after adhesion test (stainless steel stents, surfaces roughened or textured by abrasion with different abrasive grits): 84.1±10.2%
Compound: CC(=O)O[C@H]1C(=O)[C@@]2(C)[C@H]([C@H](OC(=O)c3ccccc3)[C@]3(O)C[C@H](OC(=O)[C@H](O)[C@@H](NC(=O)c4ccccc4)c4ccccc4)C(C)=C1C3(C)C)[C@]1(OC(C)=O)CO[C@@H]1C[C@@H]2O [paclitaxel]
